# Reference: patent publication US12612384B2, “Heterocyclic CYP4A inhibitor compounds and compositions thereof” (MBD CO., LTD., priority 2021, dated 2026)
# Target: T1, CYP4A (Homo sapiens, UniProt Q02928)
# T1 construct: purchased; host or cells: bacterial membranes ('bactosome')
# T1 sequence (Q02928 5-519): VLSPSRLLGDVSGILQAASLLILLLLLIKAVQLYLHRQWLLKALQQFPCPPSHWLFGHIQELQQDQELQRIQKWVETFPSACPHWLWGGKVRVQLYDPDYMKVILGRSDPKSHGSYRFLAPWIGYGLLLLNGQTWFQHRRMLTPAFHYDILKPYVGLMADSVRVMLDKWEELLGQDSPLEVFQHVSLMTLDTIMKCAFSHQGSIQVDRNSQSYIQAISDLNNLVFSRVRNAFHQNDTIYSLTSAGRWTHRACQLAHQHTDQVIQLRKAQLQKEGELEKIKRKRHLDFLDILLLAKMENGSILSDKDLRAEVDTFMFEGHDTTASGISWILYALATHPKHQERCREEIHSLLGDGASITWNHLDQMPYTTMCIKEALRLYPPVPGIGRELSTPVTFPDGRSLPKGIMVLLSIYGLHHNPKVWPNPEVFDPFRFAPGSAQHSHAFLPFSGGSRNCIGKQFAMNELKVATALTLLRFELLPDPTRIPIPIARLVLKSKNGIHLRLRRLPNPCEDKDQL
# Assay: CYP4A enzyme assay (luminescence, Luciferin-ME)
# Assay type: biochemical
# Conditions: Compound concentration 5 μM; 50%-70%; read-out: % Inhibition 50%-70%
# In short: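 Compounds (5 μM) were preincubated 15 min at room temperature with CYP4A bactosomes in 100 mM KPO4, 0.1% BSA, 1 mM DTT. Reaction ran 30 min at room temperature after adding 5 mM Luciferin-ME and NADPH regeneration system. Luminescence after 15 min with detection reagent; inhibition judged by comparing well signals.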
row,Compound,inhibition at 5 µM
1,"O=C(C1CN(S(=O)(=O)c2ccc(Br)cc2)C1)N1CCN(c2ccnc3cc(F)ccc23)CC1 [Example 68, (1-((4-bromophenyl)sulfonyl)azetidin-3-yl)(4-(7-fluoroquinolin-4-yl)piperazin-1-yl)methanone]",50 to 70%
2,"Cc1nc(N2CCN(C(=O)C3CCCN(S(=O)(=O)c4ccc(N(C)C)cc4)C3)CC2)c2ccccc2n1 (centres unmarked) [Example 82, (1-(4-(dimethylamino)phenylsulfonyl)piperidin-3-yl)(4-(2-methylquinazolin-4-yl)piperazin-1-yl)methanone]",50 to 70%

# Same assay, conditions: Compound concentration 5 μM; 70%-90%; read-out: % Inhibition 70%-90%
row,Compound,inhibition at 5 µM
1,"COc1ccc(C(=O)N2CCCC(C(=O)N3CCN(c4ccnc5cc(F)ccc45)CC3)C2)cc1 (centres unmarked) [Example 110, (4-(7-fluoroquinolin-4-yl)piperazin-1-yl)(1-(4-methoxybenzoyl)piperidin-3-yl)methanone]",70 to 90%
2,"O=C(C1CCN(S(=O)(=O)c2ccc(Br)cc2)CC1)N1CCN(c2ccnc3cc(F)ccc23)CC1 [Example 56, (1-((4-bromophenyl)sulfonyl)piperidin-4-yl)(4-(7-fluoroquinolin-4-yl)piperazin-1-yl)methanone]",70 to 90%
3,"COc1ccc2c(N3CCN(C(=O)C4CCCN(C(=O)c5ccncc5)C4)CC3)ccnc2c1 (centres unmarked) [Example 93, (4-(7-methoxyquinolin-4-yl)piperazin-1-yl)(1-(pyridine-4-ylcarbonyl)piperidin-3-yl)methanone]",70 to 90%
4,"O=C(C1CCN(S(=O)(=O)c2ccc(Br)cc2)C1)N1CCN(c2ccnc3cc(F)ccc23)CC1 (centres unmarked) [Example 16, (1-((4-bromophenyl)sulfonyl)pyrrolidin-3-yl)(4-(7-fluoroquinolin-4-yl)piperazin-1-yl)methanone]",70 to 90%
5,"O=C([C@H]1CCN(S(=O)(=O)c2ncn[nH]2)C1)N1CCN(c2ccnc3c(F)cccc23)CC1 [Example 138, (S)-(1-((1H-1,2,4-triazol-5-yl)sulfonyl)pyrrolidin-3-yl)(4-(8-fluoroquinolin-4-yl)piperazin-1-yl)methanone]",70 to 90%
6,"O=C(C1CCN(S(=O)(=O)c2ccc(Cl)nc2)C1)N1CCN(c2ccnc3ccccc23)CC1 (centres unmarked) [Example 24, (1-((6-chloropyridin-3-yl)sulfonyl)pyrrolidin-3-yl)(4-(quinolin-4-yl)piperazin-1-yl)methanone]",70 to 90%

# Same assay, conditions: Compound concentration 5 μM; Greater than 90%; read-out: % Inhibition Greater than 90%
row,Compound,inhibition at 5 µM
1,"Cn1cncc1S(=O)(=O)N1CCC(C(=O)N2CCN(c3ccnc4cc(F)ccc34)CC2)C1 (centres unmarked) [Example 14, (4-(7-fluoroquinolin-4-yl)piperazin-1-yl)(1-((1-methyl-1H-imidazol-5-yl)sulfonyl)pyrrolidin-3-yl)methanone]",> 90%
2,"CC(=O)Nc1nc(C)c(S(=O)(=O)N2CCC(C(=O)N3CCN(c4ccnc5ccccc45)CC3)C2)s1 (centres unmarked) [Example 47, N-(4-methyl-5-((3-(4-(quinolin-4-yl)piperazine-1-carbonyl)pyrrolidin-1-yl)sulfonyl)thiazol-2-yl)acetamide]",> 90%
3,"O=C(C1CCCN(S(=O)(=O)c2ccc(N3CCOCC3)nc2)C1)N1CCN(c2ccnc3cc(F)ccc23)CC1 (centres unmarked) [Example 61, (4-(7-fluoroquinolin-4-yl)piperazin-1-yl)(1-((6-morpholinopyridin-3-yl)sulfonyl)piperidin-3-yl)methanone]",> 90%
4,"CC(=O)Nc1ccc(S(=O)(=O)N2CC[C@@H](C(=O)N3CCN(c4ccnc5cc(F)ccc45)CC3)C2)cc1 [Example 2, (R)—N-(4-((3-(4-(7-fluoroquinolin-4-yl)piperazine-1-carbonyl)pyrrolidin-1-yl)sulfonyl)phenyl)acetamide]",> 90%
5,"Cn1ccnc1S(=O)(=O)N1CC[C@@H](C(=O)N2CCN(c3ccnc4cc(F)ccc34)CC2)C1 [Example 6, (R)-(4-(7-fluoroquinolin-4-yl)piperazin-1-yl)(1-((1-methyl-1H-imidazol-2-yl)sulfonyl)pyrrolidin-3-yl)methanone]",> 90%
6,"CC(=O)Nc1ccc(S(=O)(=O)N2CC(C(=O)N3CCN(c4ccnc5ccccc45)CC3)C2)cc1 [Example 70, N-(4-((3-(4-(quinolin-4-yl)piperazine-1-carbonyl)azetidin-1-yl)sulfonyl)phenyl)acetamide]",> 90%
7,"O=C(C1CCCN(S(=O)(=O)c2ccc(Cl)nc2)C1)N1CCN(c2ccnc3cc(F)ccc23)CC1 (centres unmarked) [Example 59, (1-((6-chloropyridin-3-yl)sulfonyl)piperidin-3-yl)(4-(7-fluoroquinolin-4-yl)piperazin-1-yl)methanone]",> 90%
8,"CC(=O)Nc1cccc(S(=O)(=O)N2CCC(C(=O)N3CCN(c4ccnc5cc(F)ccc45)CC3)C2)c1 (centres unmarked) [Example 9, N-(3-((3-(4-(7-fluoroquinolin-4-yl)piperazine-1-carbonyl)pyrrolidin-1-yl)sulfonyl)phenyl)acetamide]",> 90%
9,"O=C(C1CCN(S(=O)(=O)c2ccc(-c3ccc(O)nc3)cc2)C1)N1CCN(c2ccnc3ccccc23)CC1 (centres unmarked) [Example 34, (1-((4-(6-hydroxypyridin-3-yl)phenyl)sulfonyl)pyrrolidin-3-yl)(4-(quinolin-4-yl)piperazin-1-yl)methanone]",> 90%
10,"O=C([C@@H]1CCN(S(=O)(=O)c2ncc[nH]2)C1)N1CCN(c2ccnc3cc(F)ccc23)CC1 [Example 147, (R)-(1-((1H-imidazol-2-yl)sulfonyl)pyrrolidin-3-yl)(4-(7-fluoroquinolin-4-yl)piperazin-1-yl)methanone]",> 90%
11,"O=C(C1CCN(S(=O)(=O)c2ccc(-c3ccc(O)cc3)nc2)C1)N1CCN(c2ccnc3ccccc23)CC1 (centres unmarked) [Example 28, (1-((6-(4-hydroxyphenyl)pyridin-3-yl)sulfonyl)pyrrolidin-3-yl)(4-(quinolin-4-yl)piperazin-1-yl)methanone]",> 90%
12,"CC(=O)Nc1cccc(S(=O)(=O)N2CCC(C(=O)N3CCN(c4ccnc5cc(F)ccc45)CC3)CC2)c1 [Example 55, N-(3-((4-(4-(7-fluoroquinolin-4-yl)piperazine-1-carbonyl)piperidin-1-yl)sulfonyl)phenyl)acetamide]",> 90%
13,"Cc1ncc(-c2ccc(S(=O)(=O)N3CCC(C(=O)N4CCN(c5ccnc6ccccc56)CC4)C3)cc2)cn1 (centres unmarked) [Example 33, (1-((4-(2-methylpyrimidin-5-yl)phenyl)sulfonyl)pyrrolidin-3-yl)(4-(quinolin-4-yl)piperazin-1-yl)methanone]",> 90%
14,"COc1ccc2c(N3CCN(C(=O)[C@H]4CCN(S(=O)(=O)c5ncn[nH]5)C4)CC3)ccnc2c1 [Example 165, (S)-(1-((1H-1,2,4-triazol-5-yl)sulfonyl)pyrrolidin-3-yl)(4-(7-methoxyquinolin-4-yl)piperazin-1-yl)methanone]",> 90%
15,"O=C(C1CCN(S(=O)(=O)c2ccc(-c3cccnc3)nc2)C1)N1CCN(c2ccnc3ccccc23)CC1 (centres unmarked) [Example 29, (1-([2,3′-bipyridin]-5-ylsulfonyl)pyrrolidin-3-yl)(4-(quinolin-4-yl)piperazin-1-yl)methanone]",> 90%
